In patent US5412095A, “Terazosin monohydrochloride and processes and intermediate for its production” (Abbott Laboratories, priority 1994, dated 1995):
Counter-ions that a name gives are not always drawn. Like-named read-outs stand apart in the source and are kept apart here.

What was measured:
[1] = Solubility/dissolution of forms of terazosin monohydrochloride in distilled water (shaken, 0.45 µm filtered, UV at 254 nm); type: physicochemical; conditions: for Solubility of Various Forms of Terazosin Monohydrochloride / solubility at 0.5 min / solubility at 1 min / solubility at 2 min / solubility at 4 min: distilled water, 2 g in 5 mL; for dissolution in water (in words): qualitative; for solubility at 0.5 min / solubility at 1 min / solubility at 2 min / solubility at 4 min: read-out: Solubility of Various Forms of Terazosin Monohydrochloride
Description: The data in Table 1 were collected, for each data point, by weighing 2 g samples of terazosin monohydrochloride dihydrate and each of Forms I, II and II of the non-solvated monohydrochloride separately into 50 mL centrifuge tubes. Five mL of distilled water were added to each tube and the tubes shaken for the times indicated and then rapidly filtered through a 0.45 μu nylon membrane filter. The resulting flitrates were serially diluted with water 2 to […], 5 to 50, 5 to 50 and 5 to 100 mL and the ultraviolet absorption maximum at 254 nm measured. The concentrations of the dissolved terazosin were then calculated from the absorption data using dam from a series of standard concentrations.

[2] = Acidic cleavage of terazosin in aqueous acid; type: physicochemical; conditions: aqueous medium, cleaves into 4-amino-6,7-dimethoxy-2-piperazinylquinazoline and 2-furoic acid
Description: In the particular case of terazosin, when the parent compound or its hydrochloride salt is in contact for extended periods with aqueous acid, it undergoes an undesirable side reaction which cleaves the compound into its constituent parts: [drawing 2]
Moreover, if the hydrochloride salt is prepared by lyophilization of the reaction mixture of terazosin free base and hydrochloric acid, unless care is taken to remove any excess acid present in the isolated salt, the solid may also contain small amounts of acid which causes degradative cleavage over time.

[3] = free base form; cited from earlier work

Structure (SMILES): COc1cc2nc(N3CCN(C(=O)C4CCCO4)CC3)nc(N)c2cc1OC (stereo not shown) [Form III, 1-(4-amino-6,7-dimethoxy-2-quinazolinyl)-4-(tetrahydro-2-furoyl)piperazinemonohydrochloride]
- Solubility of Various Forms of Terazosin Monohydrochloride ([1]; 0.5 minutes): 235 mg/mL
- Solubility of Various Forms of Terazosin Monohydrochloride ([1]; 1 minute, 1 min): 237 mg/mL
- Solubility of Various Forms of Terazosin Monohydrochloride ([1]; 2 minutes): 269 mg/mL
- Solubility of Various Forms of Terazosin Monohydrochloride ([1]; 4 minutes): 261 mg/mL
- solubility rapidly achieved relative to the dihydrate limit (about 30 mg/mL) ([1]; water, multiple of dihydrate solubility): about ten times
- dissolution in water (in words) ([1]; water): rapidly dissolves in water
- dissolution in water (in words) ([1]; water, listed as terazosin monohydrochloride Form III): dissolves in water much more rapidly than the dihydrate form

Structure (SMILES): COc1cc2nc(N3CCN(C(=O)C4CCCO4)CC3)nc(N)c2cc1OC (stereo not shown) [Form II, 1-(4-amino-6,7-dimethoxy-2-quinazolinyl)-4-(tetrahydro-2-furoyl)piperazinemonohydrochloride]
- Solubility of Various Forms of Terazosin Monohydrochloride ([1]; 0.5 minutes): 280 mg/mL
- Solubility of Various Forms of Terazosin Monohydrochloride ([1]; 1 minute, 1 min): 253 mg/mL
- Solubility of Various Forms of Terazosin Monohydrochloride ([1]; 2 minutes): 311 mg/mL
- Solubility of Various Forms of Terazosin Monohydrochloride ([1]; 4 minutes): 323 mg/mL

Structure (SMILES): COc1cc2nc(N3CCN(C(=O)C4CCCO4)CC3)nc(N)c2cc1OC (stereo not shown) [Form I, 1-(4-amino-6,7-dimethoxy-2-quinazolinyl)-4-(tetrahydro-2-furoyl)piperazinemonohydrochloride]
- solubility at 0.5 min ([1]; water, 0.5 minutes): 273 mg/mL
- solubility at 1 min ([1]; water, 1 minute): 283 mg/mL
- solubility at 2 min ([1]; water, 2 minutes): 289 mg/mL
- solubility at 4 min ([1]; water, 4 minutes): 276 mg/mL

Structure (SMILES): COc1cc2nc(N3CCN(C(=O)C4CCCO4)CC3)nc(N)c2cc1OC.Cl.O.O (stereo not shown) [Dihydrate, 1-(4-Amino-6,7-dimethoxy-2-quinazolinyl)-4-(tetrahydro-2-furoyl)piperazine monohydrochloride dihydrate]
- solubility at 0.5 min ([1]; 0.5 minutes): 29 mg/mL
- solubility at 1 min ([1]; 1 minute): 30 mg/mL
- solubility at 2 min ([1]; 2 minutes): 27 mg/mL
- solubility at 4 min ([1]; 4 minutes): 26 mg/mL
- solubility ([1]; water, rapidly reached, read-out: limit of solubility): ~30 mg/mL

Structure (SMILES): COc1cc2nc(N3CCN(C(=O)C4CCCO4)CC3)nc(N)c2cc1OC (stereo not shown) [terazosin, 1-(4-amino-6,7-dimethoxy-2-quinazolinyl)-4-(tetrahydro-2furoyl)piperazine]
- acidic cleavage (stability) [2]: occurs rapidly in aqueous medium
- solubility for oral administration (in words) [3]: does not possess the requisite solubility for convenient oral administration
